Data taken from ChEMBL document CHEMBL1138682, “Fluorescent pirenzepine derivatives as potential bitopic ligands of the human M1 muscarinic receptor” (J Med Chem, 2004).

How the values were obtained:
[1] = biological target: T1, Muscarinic acetylcholine receptor M1 (Homo sapiens) (UniProt P11229); test: Dissociation rate constant for human muscarinic receptor at 500 nM with 100 uM brucine
T1 sequence (whole entry): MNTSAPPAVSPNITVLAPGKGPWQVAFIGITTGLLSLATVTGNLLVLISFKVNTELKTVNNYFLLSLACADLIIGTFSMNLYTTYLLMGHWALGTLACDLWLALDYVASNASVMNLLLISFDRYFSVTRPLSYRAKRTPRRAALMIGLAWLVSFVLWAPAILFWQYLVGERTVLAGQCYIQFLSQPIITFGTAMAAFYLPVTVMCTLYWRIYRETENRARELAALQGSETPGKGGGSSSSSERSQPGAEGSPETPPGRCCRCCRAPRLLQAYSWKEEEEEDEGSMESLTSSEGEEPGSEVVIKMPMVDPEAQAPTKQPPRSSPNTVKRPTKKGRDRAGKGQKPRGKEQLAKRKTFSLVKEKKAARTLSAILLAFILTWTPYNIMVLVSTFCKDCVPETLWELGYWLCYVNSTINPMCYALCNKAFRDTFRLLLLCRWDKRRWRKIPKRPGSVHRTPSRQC

[2] = biological target: T1, Muscarinic acetylcholine receptor M1 (Homo sapiens)
Description: Apparent dissociation constant for human muscarinic receptor M1 from FRET binding assay

[3] = biological target: T1, Muscarinic acetylcholine receptor M1 (Homo sapiens); test: Dissociation rate constant for human muscarinic receptor at 500 nM with 500 uM brucine
[4] = biological target: T2, Muscarinic acetylcholine receptor M1 (Homo sapiens, UniProt P11229); test: Inhibition of [3H]QNB binding to human muscarinic receptor M1
T2 sequence (P11229 whole entry): T1 sequence (whole entry)

[5] = biological target: T2, Muscarinic acetylcholine receptor M1; test: Apparent dissociation constant for human muscarinic receptor M1 from FRET based binding assay
[6] = biological target: T1, Muscarinic acetylcholine receptor M1 (Homo sapiens); settings: 100 nM
Description: Dissociation rate constant for human muscarinic receptor at 100 nM with 500 uM brucine

[7] = biological target: T1, Muscarinic acetylcholine receptor M1 (Homo sapiens); settings: 100 nM; remark: listed apart in the source
Description: Dissociation rate constant for human muscarinic receptor at 100 nM with 100 uM brucine

[8] = biological target: T1, Muscarinic acetylcholine receptor M1 (Homo sapiens); settings: 300 nM
Description: Dissociation rate constant for human muscarinic receptor at 300 nM with 100 uM brucine

[9] = biological target: T1, Muscarinic acetylcholine receptor M1 (Homo sapiens); settings: 300 nM; remark: listed apart in the source
Description: Dissociation rate constant for human muscarinic receptor at 300 nM with 500 uM brucine

[10] = biological target: T1, Muscarinic acetylcholine receptor M1 (Homo sapiens); test: Dissociation rate constant for human muscarinic receptor at 200 nM with 500 uM brucine
[11] = biological target: T1, Muscarinic acetylcholine receptor M1 (Homo sapiens); test: Dissociation rate constant for human muscarinic receptor at 200 nM with 100 uM brucine

SMILES	Dissociation rate constant [1]	E [2]	Dissociation rate constant [3]	Ki [4] [nM]	Kd [5] [nM]	Dissociation rate constant [6]	Dissociation rate constant [7]	Dissociation rate constant [8]	Dissociation rate constant [9]	Dissociation rate constant [10]	Dissociation rate constant [11]
CCN(CC)c1ccc2c(-c3ccc(S(=O)(=O)NCCCCCC(=O)NCCOCCOCCN4CCN(CC(=O)N5c6ccccc6C(=O)Nc6cccnc65)CC4)cc3S(=O)(=O)[O-])c3ccc(=[N+](CC)CC)cc-3oc2c1	0.00062 1/S	0.68	0.00051 1/S	53.5	18.7						
O=C(CCC1=[N+]2C(=Cc3ccc(-c4cccs4)n3[B-]2(F)F)C=C1)NCCCCCCN1CCN(CC(=O)N2c3ccccc3C(=O)Nc3cccnc32)CC1		0.63		8.8	12.9	7.2e-05 1/S	0.0002 1/S				
CCN1/C(=C/C=C/C2N(CCCCCC(=O)NCCOCCOCCN3CCN(CC(=O)N4c5ccccc5C(=O)Nc5cccnc54)CC3)c3ccc(S(=O)(=O)O)cc3C2(C)C)C(C)(C)c2cc(S(=O)(=O)O)ccc21 (configuration not stated)		0.6		135	35.7			0.00039 1/S	0.000353 1/S		
CNC(=O)CCC1=[N+]2C(=Cc3ccc(-c4cccs4)n3[B-]2(F)F)C=C1				> 1000							
O=C(CCC1=[N+]2C(=Cc3ccc(-c4cccs4)n3[B-]2(F)F)C=C1)NCCN1CCN(CC(=O)N2c3ccccc3C(=O)Nc3cccnc32)CC1				> 1000							
O=C(CCC1=[N+]2C(=Cc3ccc(-c4cccs4)n3[B-]2(F)F)C=C1)NCCOCCOCCOCCOCCOCCOCCN1CCN(CC(=O)N2c3ccccc3C(=O)Nc3cccnc32)CC1		0.53		8.9	4.1	0.00025 1/S	0.00023 1/S				
O=C(CCC1=[N+]2C(=Cc3ccc(-c4cccs4)n3[B-]2(F)F)C=C1)NCCOCCOCCN1CCN(CC(=O)N2c3ccccc3C(=O)Nc3cccnc32)CC1		0.6		45.4	21.9					0.00013 1/S	0.00025 1/S
O=C(CCCCCNC(=O)CCC1=[N+]2C(=Cc3ccc(-c4cccs4)n3[B-]2(F)F)C=C1)NCCCCCC(=O)NCCCCN1CCN(CC(=O)N2c3ccccc3C(=O)Nc3cccnc32)CC1		0.51		55.1	12.7					0.00146 1/S	0.00144 1/S
